# Reference: PMC9966435, “Synthesis and Biological Evaluation of 3-Amidoquinuclidine Quaternary Ammonium Compounds as New Soft Antibacterial Agents” (Pharmaceuticals, 2023)
# Like-named read-outs stand apart in the source and are kept apart here.
# How the values were obtained:
# Assay type in all cases: cell-based
# [1] = tested on: Staphylococcus aureus ATCC25923; assay: Broth microdilution MIC in Mueller Hinton broth
# [2] = tested on: Staphylococcus aureus ATCC33591; assay: Broth microdilution MIC in Mueller Hinton broth
# [3] = tested on: Staphylococcus aureus Clinical/MRSA; assay: Broth microdilution MIC in Mueller Hinton broth; settings: for MIC: Staphylococcus aureus, MRSA, read-out: Minimum Inhibitory Concentration (MIC) Staphylococcus aureus Clinical/MRSA
# [4] = tested on: Bacillus cereus ATCC14579; assay: Broth microdilution MIC in Mueller Hinton broth
# [5] = tested on: Listeria monocytogenes ATCC7644; assay: Broth microdilution MIC in Mueller Hinton broth
# [6] = tested on: Enterococcus faecalis ATCC29212; assay: Broth microdilution MIC in Mueller Hinton broth
# [7] = tested on: Escherichia coli ATTC25922; assay: Broth microdilution MIC in Mueller Hinton broth
# [8] = tested on: Salmonella enterica food isolate; assay: microbe, parasite or virus in culture; settings: MHB, read-out: Minimum Inhibitory Concentration (MIC) Salmonella enterica food isolate
# [9] = tested on: Pseudomonas aeruginosa ATTC27853; assay: Broth microdilution MIC in Mueller Hinton broth
# [10] = tested on: Staphylococcus aureus ATCC 33591; settings: MIC in MHB vs MIC with 10 µM CCCP, S. aureus ATCC 33591
# Experimental: Bacterial susceptibility toward (±)3-amidoquinuclidine quaternary ammonium compounds was evaluated in the presence of an ATP synthesis inhibitor carbonyl cyanide 3-chlorophenylhydrazone (CCCP) (Sigma Aldrich). The minimum inhibitory concentration (MIC) of CCCP against Staphylococcus aureus ATCC 33591 (MRSA) was established before the experiment. The overnight culture of Staphylococcus aureus ATCC 33591 was diluted in tempered Mueller Hinton broth (MHB) and cultivated in the orbital shaker at 37 °C and 220 rpm. When the culture reached the preexponential phase of growth (OD600 = 0.3–0.5), it was diluted to a final concentration of 5 × 10^5 CFU/mL in MHB containing 10 µM CCCP. A total of 50 µL of prepared cell suspension was pipetted into a 96-well plate containing twofold serial dilutions of tested compounds in MHB with CCCP at a final concentration of 10 µM. Plates were incubated overnight, and the MIC reduction of tested compounds in the presence of 10 µM CCCP was recorded the following day.
# [11] = tested on: Staphylococcus aureus ATCC 25923; assay: MIC in cation-adjusted Mueller Hinton broth (CA-MHB); settings: ATCC25923, read-out: MIC CA-MHB
# Experimental: A representative bacterial strain, Staphylococcus aureus ATCC 25923, was grown overnight in Mueller Hinton broth (MHB). The following day, the culture was diluted in tempered MHB and allowed to grow at 37 °C with constant shaking of 220 rpm. Once the bacterial culture reached the exponential growth phase (OD600 = 0.3–0.5), it was diluted in the cation-adjusted Mueller Hinton broth (CA-MHB) containing MgCl2 (10 mM) to the final cell count of 5 × 10^5 CFU/mL. The previously prepared 96-well plate contained twofold serial dilutions of the compounds to be tested, dissolved in CA-MHB, in the concentrations range of 125 µM to 0.12 µM. Then, 50 µL of the bacterial cells diluted in CA-MHB was pipetted in each well of the plate and incubated overnight at 37 °C with constant shaking at 220 rpm. The next day, the minimum inhibitory concentration (MIC) was determined as the lowest concentration of the compound that prevented supposed bacterial growth in the wells. Visually determined results of antibacterial activity were confirmed by the addition of 20 µL 2-(4-iodophenyl)-3-(4-nitrophenyl)-5-phenyltetrazolium chloride (INT) reagent (6 mg/mL). The MIC value of a drug in CA-MHB containing NaCl (85 mM) was determined using the same experimental technique.
# [12] = tested on: Staphylococcus aureus ATCC 25923; assay: MIC in Dulbecco's Modified Eagle Medium (DMEM); settings: ATCC25923, read-out: MIC DMEM
# Experimental: The overnight culture of Staphylococcus aureus ATCC 25923 was diluted in fresh Mueller Hinton broth (MHB) and placed in an orbital shaker incubator (Gallenkamp, Cambridge, UK) at 37 °C and 220 rpm. Once the culture reached the exponential growth phase (OD600 = 0.3–0.5), cells were centrifuged (Heraeus, Biofuge primo R, Hanau, Germany) at room temperature at a speed of 4000× g. The cell pellet was resuspended in tempered Dulbecco’s Modified Eagle Medium (DMEM) to a final concentration of 5 × 10^5 CFU/mL. Then, 50 µL of as-prepared cells were added to a 96-well plate containing twofold serial dilutions of tested compounds in DMEM medium in the range of concentrations from 125 µM to 0.12 µM. The minimum inhibitory concentration (MIC) was visually assessed the next day. The MIC was determined as the lowest concentration of the substance at which no apparent bacterial growth was seen.
# [13] = tested on: Staphylococcus aureus ATCC 25923; assay: Time-resolved growth analysis
# Experimental: The growth kinetic experiments were performed to further investigate the efficacy of the selected 3-amidoquinnuclidine candidates. The candidates from series 1 (QC14-Me, QC14-Ally, QC16-Me, and QC16-Ally) and series 3 (QBn-C12, QBn-C14, and QBn-C16) were incubated at MIC and ½ MIC for 350 min with an appropriate number of CFU of Staphylococcus aureus ATCC 25923 at 37 °C with shaking. Time-resolved growth analysis was performed along with the control, in which bacterial growth was monitored without the presence of the antibacterial agent.
# Time-resolved growth analysis was performed in the microtiter plate reader (Bio-Tek EL808, Winooski, VT, USA) by incubating the selected antibacterial agent with Staphylococcus aureus ATCC 25923. The exponentially grown culture (OD600 = 0.3–0.5) of S. aureus ATCC 25923 was diluted to a final concentration of 5 × 10^4 CFU/mL. Then, 50 µL of such prepared cell culture was added to the 96-well plates containing the MIC or ½ MIC of the compound to be tested. The plates were incubated at 37 °C for 350 min in the microplate reader with shaking. OD600 was recorded at 10 min intervals. The results obtained represent the mean of two independent experiments performed in triplicate.
# [14] = tested on: Staphylococcus aureus ATCC 25923 biofilm; assay: Biofilm inhibition assay (crystal violet); settings: ATCC25923, 12.5 μg mL−1, 48 h
# Experimental: Therefore, we investigated the antibiofilm activity of the new 3-amidoquinuclidine QACs against the biofilm-forming pathogen S. aureus ATCC 25923, which causes opportunistic infections of various tissues in humans. […] Antibiofilm activity was evaluated at four different concentrations (12.5, 25, 50, and 100 μ g mL^−1), and as shown on the crystal violet heat map (CV) (Figure 3A), all compounds have the potential to inhibit biofilm formation, albeit at different concentrations.
# Minimum biofilm inhibitory concentration (MBIC) was determined against Staphylococcus aureus ATCC 25923. Compounds were dissolved in MHB and serially diluted in 96-well plates with a final mass concentration ranging from 100 to 12.5 µg/mL. The exponentially grown culture (OD600 = 0.3–0.5) of S. aureus ATCC 25923 was diluted to a final concentration of 5 × 10^6 CFU/mL. Then, 50 µL of such prepared cell culture was added to the 96-well plates containing twofold dilutions of the compound to be tested. The plates were incubated for 48 h. After incubation, the broth over the biofilm was aspirated, and the plate with the biofilm was dried at 60 °C. […] Absorbance was measured at 595 nm in an optical reader. The percentage of biofilm formed was calculated by dividing the absorbance of the well containing the tested substance by the absorbance of the untreated bacterial cells and multiplying by 100.
# [15] = MHB, read-out: Minimum Inhibitory Concentration (MIC) Staphylococcus aureus ATCC25923
# [16] = Staphylococcus aureus, ATCC25923, read-out: Minimum Inhibitory Concentration (MIC) Staphylococcus aureus ATCC25923
# [17] = Staphylococcus aureus, ATCC33591, read-out: Minimum Inhibitory Concentration (MIC) Staphylococcus aureus ATCC33591
# [18] = Bacillus cereus, ATCC14579, read-out: Minimum Inhibitory Concentration (MIC) Bacillus cereus ATCC14579
# [19] = Listeria monocytogenes, ATCC7644, read-out: Minimum Inhibitory Concentration (MIC) Listeria monocytogenes ATCC7644
# [20] = Enterococcus faecalis, ATCC29212, read-out: Minimum Inhibitory Concentration (MIC) Enterococcus faecalis ATCC29212
# [21] = Escherichia coli, ATTC25922, read-out: Minimum Inhibitory Concentration (MIC) Escherichia coli ATTC25922
# [22] = Pseudomonas aeruginosa, ATTC27853, read-out: Minimum Inhibitory Concentration (MIC) Pseudomonas aeruginosa ATTC27853
SMILES,"MIC [1, 15] [µM]","MIC [1, 16] [µM]","MIC [2, 17] [µM]",MIC [3] [µM],"MIC [4, 18] [µM]","MIC [5, 19] [µM]","MIC [6, 20] [µM]","MIC [7, 21] [µM]",MIC ([8]; Salmonella enterica) [µM],"MIC [9, 22] [µM]",MIC [11] [µM],MIC [12] [µM],inhibition at 12.5 µg/mL [14] [%],also measured
"CCCCCCCCCCCC[N+](C)(C)Cc1ccccc1.[Br-] [BAB, benzyldimethyldodecylammonium bromide, reference compound]",10,–,–,–,–,–,–,–,–,–,–,–,–,"MIC ([2]; MHB, read-out: Minimum Inhibitory Concentration (MIC) Staphylococcus aureus ATCC33591): 25 µM; Minimum Inhibitory Concentration (MIC) Staphylococcus aureus Clinical/MRSA ([3]; MHB): 25 µM; MIC ([4]; MHB, read-out: Minimum Inhibitory Concentration (MIC) Bacillus cereus ATCC14579): 13 µM; MIC ([5]; MHB, read-out: Minimum Inhibitory Concentration (MIC) Listeria monocytogenes ATCC7644): 10 µM; MIC ([6]; MHB, read-out: Minimum Inhibitory Concentration (MIC) Enterococcus faecalis ATCC29212): 15 µM; MIC ([7]; MHB, read-out: Minimum Inhibitory Concentration (MIC) Escherichia coli ATTC25922): 63 µM; MIC [8]: 50 µM; MIC ([9]; MHB, read-out: Minimum Inhibitory Concentration (MIC) Pseudomonas aeruginosa ATTC27853): >125 µM; Fold reduction in MIC [10]: 32"
C=CC[N+]12CCC(CC1)C(NC(=O)CCCCCCCCCCCCC)C2 (stereo not shown) [QC14-Ally],20,20,50,25,25,8,15,50,> 125,> 125,20,6,~100,inhibition of bacterial growth at ½ MIC [13]: unable to inhibit bacterial growth
C=CC[N+]12CCC(CC1)C(NC(=O)CCCCCCCCCCCCCCC)C2 (stereo not shown) [QC16-Ally],15,15,25,31,> 100,16,> 100,> 100,> 125,> 125,15,3,~100,–
